Eleven compounds from patent US9657018B2, “Antagonists acting at multiple prostaglandin receptors for the treatment of inflammation” (Allergan, Inc., priority 2014, dated 2017) can be followed below.

Holding throughout (assay type): cell-based
For assay [1], the target named is T1, human prostanoid DP1 receptor (Homo sapiens, UniProt Q13258).
T1 construct: expressed in transfected cells
T1 sequence (Q13258 1-359): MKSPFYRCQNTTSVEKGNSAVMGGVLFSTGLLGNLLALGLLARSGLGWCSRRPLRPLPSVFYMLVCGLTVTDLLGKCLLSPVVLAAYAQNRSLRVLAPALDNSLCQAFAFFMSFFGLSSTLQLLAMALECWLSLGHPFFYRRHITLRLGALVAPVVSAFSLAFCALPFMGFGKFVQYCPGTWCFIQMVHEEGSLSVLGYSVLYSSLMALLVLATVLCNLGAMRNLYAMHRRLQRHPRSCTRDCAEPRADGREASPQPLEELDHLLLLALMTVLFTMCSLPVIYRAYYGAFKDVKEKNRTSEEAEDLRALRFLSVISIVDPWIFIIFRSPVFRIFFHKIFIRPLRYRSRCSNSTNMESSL
In words: FLIPR Ca2+ signaling antagonist assay, DP1 receptor stable cell line. The conditions noted are these: human recombinant DP1 + chimeric Gqs in HEK-293 EBNA cells; standard agonist BW 245C; NA = no antagonism or Kb>=10,000 nM. The method, then: (§1) The above compounds were tested for PG antagonist activity as follows using human recombinant prostanoid receptor (DP1, EP1-4, FP, IP and TP) stable cell lines:
(§2) In order to measure the response of Gs and Gi coupled prostanoid receptors as a Ca^2+ signal, chimeric G protein cDNAs were used. Stable cell lines over-expressing human prostanoid DP1, EP1-4, FP, IP, and TP receptors were established as follows:
(§3) Briefly, human prostanoid DP1, EP2, and EP4 receptor cDNAs were co-transfected with chimeric Gqs cDNA containing a haemagglutanin (HA) epitope; human prostanoid EP3 receptors were co-transfected with chimeric Gqi-HA; human EP1, FP, IP, and TP receptor cDNAs were expressed with no exogenous G-proteins. Gqs and Gqi chimeric cDNAs (Molecular Devices, Sunnyvale, Calif., U.S.A.), as well as cDNAs of prostanoid receptors, were cloned into a pCEP4 vector with a hygromycin B selection marker. Transfection into HEK-293 EBNA (Epstein-Barr virus nuclear antigen) cells was achieved by the FuGENE 6 transfection Reagent (Roche Applied Science, Indianapolis, Ind., USA). Stable transfectants were selected according to hygromycin resistance. Because Gqs and Gqi contained an HA epitope, G-protein expression was detected by Western blotting analysis using anti-mouse HA monoclonal antibody and horseradish peroxidase (HRP)-conjugated secondary antibody, while functional expression of prostanoid receptors was detected by FLIPR screening (Matias et al., 2004). These stable cell lines were validated using previously published antagonists at 10 μM against serial dilutions of standard agonists by FLIPR functional assays for Ca^2+ Signaling (as described below).
(§4) Ca^2+ signaling studies were performed using a FLIPR TETRA system (Molecular Devices, Sunnyvale, Calif., USA) in the 384-format. This is a high-throughput instrument for cell-based assays to monitor Ca^2+ signaling associated with GPCRs and ion channels. Cells were seeded at a density of 5×10^4 cells/well in BioCoat poly-D-lysine coated, black wall, clear bottom 384-well plates (BD Biosciences, Franklin lakes, NJ, USA) and allowed to attach overnight in an incubator at 37° C. The cells were then washed twice with HBSS-HEPES buffer (Hanks' balanced salt solution without bicarbonate and phenol red, 20 mM HEPES, pH 7.4) using an ELx405 Select CW Microplate Washer (BioTek, Winooski, Vt., USA). After 60 min of dye-loading in the dark using the Ca^2+-sensitive dye Fluo-4AM (Invitrogen, Carlsbad, Calif., USA), at a final concentration of 2×10^−6M, the plates were washed 4 times with HBSS-HEPES buffer to remove excess dye and leaving 50 μl of buffer in each well. The plates were then placed in the FLIPR TETRA instrument and allowed to equilibrate at 37° C. AGN-211377 was added in a 25 μl volume to each well to give final concentrations of 0.1 μl. M, 0.4M, 1 μM, 3 μl. M, 10 μl. M, and 30 μl. M; or 0.067 μM, 0.4M, 0.67 μM, and 1 μM for cells over-expressing TP receptors. After 4.5 minutes, a 7-point serial dilution of the standard agonist for the corresponding receptor, in a 25 μl volume was injected at the final concentrations from 10^−11M to 10^−5M in 10-fold serial dilution increments for cells expressing human recombinant DP1, EP1, EP2, EP3, EP4, FP, and IP receptors. The dose range for the standard agonist for human recombinant TP receptors was from 10^−12M to 10^−6M. HBSS-HEPES buffer was used as the negative control for the standard agonists. Cells were excited with LED (light emitting diode) excitation at 470-495 nm and emission was measured through an emission filter at 515-575 nm. Assay plates were read for 3.5 minutes using the FLIPR^TETRA. The peak increase in fluorescence intensity was recorded for each well. On each plate, negative controls, dose response of positive controls, and co-treatments of antagonist-agonist for each dose were in triplicates. Standard agonists were as follows: DP=BW 245C, EP1-EP4=PGE2, FP=17-phenyl-PGF2a, IP=Cicaprost, and TP=U-46619. […]

Assay [2] addresses T2, human prostanoid EP3 receptor (Homo sapiens, UniProt P43115).
T2 construct: expressed in transfected cells
T2 sequence (P43115 1-390): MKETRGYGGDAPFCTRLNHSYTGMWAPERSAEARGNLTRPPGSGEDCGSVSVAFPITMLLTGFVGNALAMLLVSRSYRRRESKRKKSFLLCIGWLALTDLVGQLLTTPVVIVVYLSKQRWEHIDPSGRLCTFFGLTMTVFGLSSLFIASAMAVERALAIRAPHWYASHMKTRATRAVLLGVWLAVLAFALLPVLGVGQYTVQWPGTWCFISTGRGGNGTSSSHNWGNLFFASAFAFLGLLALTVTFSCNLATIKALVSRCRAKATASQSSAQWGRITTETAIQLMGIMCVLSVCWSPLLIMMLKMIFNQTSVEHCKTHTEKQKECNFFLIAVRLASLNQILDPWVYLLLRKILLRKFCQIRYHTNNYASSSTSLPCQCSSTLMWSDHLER
In words: FLIPR Ca2+ signaling antagonist assay, EP3 receptor stable cell line. Conditions: human recombinant EP3 + chimeric Gqi in HEK-293 EBNA cells; standard agonist PGE2; NA = no antagonism or Kb>=10,000 nM. The method, then:
as §1, §2, §3, §4

Assay [3] addresses T3, human prostanoid FP receptor (Homo sapiens, UniProt P43088).
T3 construct: expressed in transfected cells
The assay can be described thus: FLIPR Ca2+ signaling antagonist assay, FP receptor stable cell line. The conditions noted are these: human recombinant FP in HEK-293 EBNA cells; standard agonist 17-phenyl-PGF2a; NA = no antagonism or Kb>=10,000 nM. The method, then:
as §1, §2, §3, §4

For assay [4], the target named is T4, human prostanoid IP receptor (Homo sapiens, UniProt P43119).
T4 construct: expressed in transfected cells
The assay can be described thus: FLIPR Ca2+ signaling antagonist assay, IP receptor stable cell line. Details: key to FLIPR data IP (Kb): PAg = partial agonist; Ag = agonist; NA = not active. Conditions: human recombinant IP in HEK-293 EBNA cells; standard agonist Cicaprost; NA = no antagonism or Kb>=10,000 nM. The method, then: as §1, §2, §3, §4

T4 sequence (P43119 whole entry): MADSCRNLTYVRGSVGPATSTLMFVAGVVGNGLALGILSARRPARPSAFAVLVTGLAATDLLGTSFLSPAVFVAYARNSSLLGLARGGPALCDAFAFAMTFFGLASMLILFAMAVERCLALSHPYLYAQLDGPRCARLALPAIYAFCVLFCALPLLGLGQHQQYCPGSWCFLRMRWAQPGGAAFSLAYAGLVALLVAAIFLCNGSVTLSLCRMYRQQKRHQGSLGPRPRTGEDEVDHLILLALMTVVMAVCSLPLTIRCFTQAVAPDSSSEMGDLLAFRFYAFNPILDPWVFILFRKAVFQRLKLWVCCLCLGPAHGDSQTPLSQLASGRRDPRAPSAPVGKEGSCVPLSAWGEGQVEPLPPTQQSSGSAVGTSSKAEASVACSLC
T3 sequence (P43088 whole entry): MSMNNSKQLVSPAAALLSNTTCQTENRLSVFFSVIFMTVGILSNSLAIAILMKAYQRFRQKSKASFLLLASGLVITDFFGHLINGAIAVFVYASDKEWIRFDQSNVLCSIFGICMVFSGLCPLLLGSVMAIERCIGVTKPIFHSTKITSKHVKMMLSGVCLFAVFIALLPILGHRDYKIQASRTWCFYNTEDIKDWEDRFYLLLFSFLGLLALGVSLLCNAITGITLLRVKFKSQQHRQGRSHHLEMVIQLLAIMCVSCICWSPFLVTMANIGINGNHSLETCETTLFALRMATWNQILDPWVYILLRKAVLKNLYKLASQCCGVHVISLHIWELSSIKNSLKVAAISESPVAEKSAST

As a reminder, the Kb is the equilibrium dissociation constant of an antagonist, usually derived from a functional assay. Turning to `CC(C)Cn1ncc2cc(Cl)cc(Cn3ncc4cc(C(=O)O)ccc43)c21` [Compound 41, 1-(5-Chloro-1-isobutyl-1H-indazol-7-ylmethyl)-1H-indazole-5-carboxylic acid], the Kb in assay [1] is 0.46 µM; in assay [2], above 10 µM; in assay [3], 0.07 µM; in assay [4], above 10 µM.
For the compound `CC(C)Cn1ncc2cc(Br)cc(Cn3ncc4cc(C(=O)O)ccc43)c21` [Compound 42, 1-(5-Bromo-1-isobutyl-1H-indazol-7-ylmethyl)-1H-indazole-5-carboxylic acid], the antagonist dissociation constant (Kb) is 0.59 µM in assay [1], above 10 µM in assay [2], 0.04 µM in assay [3] and above 10 µM in assay [4].
Take `CC(C)Cn1ncc2cc(F)cc(Cn3ncc4cc(C(=O)O)ccc43)c21` [Compound 43, 1-(5-Fluoro-1-isobutyl-1H-indazol-7-ylmethyl)-1H-indazole-5-carboxylic acid]: the antagonist dissociation constant (Kb) in assay [1] was 1.7 µM; in assay [2] it was above 10 µM; in assay [3] it was 0.7 µM; in assay [4] it was above 10 µM.
Regarding `CC(C)Cn1ncc2cc(C(F)(F)F)cc(Cn3ncc4cc(C(=O)O)ccc43)c21` [Compound 44, 1-(1-Isobutyl-5-trifluoromethyl-1H-indazol-7-ylmethyl)-1H-indazole-5-carboxylic acid], the figures for the antagonist equilibrium constant (Kb) in assay [1], in assay [2] and in assay [3] were 1 µM, above 10 µM and 0.15 µM, respectively. In assay [4], the “FLIPR data IP (Kb)” value is recorded as “PAg”.
`CC(C)Cn1ncc2cc(OC(F)(F)F)cc(Cn3ncc4cc(C(=O)O)ccc43)c21` [Compound 45, 1-(1-Isobutyl-5-trifluoromethoxy-1H-indazol-7-ylmethyl)-1H-indazole-5-carboxylic acid]: the values for the antagonist dissociation constant (Kb) in assay [1], in assay [2] and in assay [3] were 0.3 µM, above 10 µM and 0.08 µM, respectively. Moreover, the “FLIPR data IP (Kb)” value in assay [4] is “Ag”.
With `CC(C)n1ncc2cc(Br)cc(Cn3ncc4cc(C(=O)O)ccc43)c21` [Compound 46, 1-(5-Bromo-1-isopropyl-1H-indazol-7-ylmethyl)-1H-indazole-5-carboxylic acid], the Kb in assay [1] is above 10 µM; in assay [2] it was above 10 µM; in assay [3] it was 0.2 µM; in assay [4], above 10 µM.
For the compound `CCC(CC)Cn1ncc2cc(Br)cc(Cn3ncc4cc(C(=O)O)ccc43)c21` [Compound 47, 1-[5-Bromo-1-(2-ethyl-butyl)-1H-indazol-7-ylmethyl]-1H-indazole-5-carboxylic acid], the Kb in assay [1] was 1.4 µM; in assay [2], above 10 µM; in assay [3], 3 µM; in assay [4] it was 1 µM.
For the compound `CCCn1ncc2cc(Cl)cc(Cn3ncc4cc(C(=O)O)ccc43)c21` [Compound 48], the antagonist equilibrium constant (Kb) in assay [1] is 5.5 µM; in assay [2] it was above 10 µM; in assay [3] it was 0.5 µM; in assay [4] it was above 10 µM.
In the case of `CC(C)Cn1ncc2cc(Cl)cc(Cn3ncc4cc(C(=O)O)cnc43)c21` [Compound 49, 1-(5-Chloro-1-isobutyl-1H-indazol-7-ylmethyl)-1H-pyrazolo[3,4-b]pyridine-5-carboxylic acid], the Kb is 3.5 µM in assay [1], above 10 µM in assay [2], 1.9 µM in assay [3] and 8.9 µM in assay [4].
As for `CC(C)Cn1ncc2cc(Cl)cc(Cn3cnc4cc(C(=O)O)ccc43)c21` [Compound 50, 1-(5-Chloro-1-isobutyl-1H-indazol-7-ylmethyl)-1H-benzoimidazole-5-carboxylic acid], the Kb in assay [1], in assay [2], in assay [3] and in assay [4] was above 10 µM throughout.
In the case of `CC(C)Cn1ncc2cc(Cl)cc(Cn3cnc4cc(C(=O)O)cnc43)c21` [Compound 51, 3-(5-Chloro-1-isobutyl-1H-indazol-7-ylmethyl)-3H-imidazo[4,5-b]pyridine-6-carboxylic acid], the antagonist equilibrium constant (Kb) in assay [1] was above 10 µM; in assay [2] it was above 10 µM; in assay [3], 4.9 µM; in assay [4] it was 8 µM.
